The term pIC50 denotes the negative decadic logarithm of the IC50, by convention in mol/L.

pIC50: −log10 of the molar value. “Also recorded” adds a separate entry of the source.

One data set concerns the target wild type FGFR-4 (Homo sapiens (Human), UniProt P22455). Nature of the data set: FGFR-4 wild type assay at Km (Caliper electrophoretic mobility shift). In kind it is biochemical. How it is done: In order to assess the activity of chemical compounds against the relevant kinase of interest, the Caliper LifeSciences electrophoretic mobility shift technology platform is utilized. Fluorescently labeled substrate peptide is incubated in the presence dosed levels of compounds, a set concentration of kinase and of ATP, so that a reflective proportion of the peptide is phosphorylated. At the end of the reaction, the mix of phosphorylated (product) and non-phosphorylated (substrate) peptides are passed through the microfluidic system of the Caliper LabChip® EZ Reader II, under an applied potential difference. The presence of the phosphate group on the product peptide provides a difference in mass and charge between the product peptide and the substrate peptide, resulting in a separation of the substrate and product pools in the sample. As the pools pass the LEDS within the instrument, these pools are detected and resolved as separate peaks. The ratio between these peaks therefore reflects the activity of the chemical matter at that concentration in that well, under those conditions.
The reaction was stopped by the addition of 70 ul of Stop buffer (100 mM HEPES pH 7.5, 0.015% Brij 35, 35 mM EDTA and 0.2% of Coating Reagent 3 (Caliper Lifesciences)). The plate was then read on a Caliper LabChip® EZ Reader II (protocol settings: −1.9 psi, upstream voltage −700, downstream voltage −3000, post sample sip 35 s).

Data set [1] concerns the target GST-tagged recombinant wild type FGFR-4 (Homo sapiens (Human), UniProt P22455). In words: Covalency: mass spectrometry of protein-inhibitor complex. In kind it is binding. Particulars: 300 uM compound, 75 uM FGFR-4, 3 hours room temperature then 13 hours 4° C. How it is done:
The protein-inhibitor complex was then desalted using Pierce detergent removal columns (Thermo Pierce). The unmodified protein and protein-inhibitor complex were analyzed by electron spray mass spectrometry to determine their respective molecular weights.

A further data set concerns the target FGFR-4 (Homo sapiens (Human), UniProt P22455). Nature of the data set: Crystal structure of compound bound to FGFR-4. Type of data set: binding.
A further data set concerns Hep3B cells. In words: Induction of apoptosis, Caspase-Glo3/7 assay in Hep3B cells. Type of data set: cell-based. The conditions noted are these: 6 hours. Here is the method:
Hep3B cells were seeded at 20 k/well in 96-well white plates in 200 ul of DMEM/5% FBS overnight. The next day compound was added at a final DMSO concentration of 0.1% and incubated for 6 hours. Caspase activity was measured according to manufacture instruction (Caspase-Glo3/7 Assay (Promega)). Briefly, 100 ul of Caspase-Glo3/7 reagent was added to each well and incubated for 1 hour in the dark. Luminescence was measured using EnVision.

The next data set has as its system Hep3B xenograft tumors. Nature of the data set: Hep3B liver cancer cell subcutaneous xenograft model, tumor growth inhibition. Type of data set: in vivo, Mus Musculus. The conditions noted are these: Day 4 to Day 19, nude mice. Here is the method: […] female nude mice (Mus Musculus) age 6 to 8 weeks were used. Tumor cell culture and inoculation: Hep3B cells were cultured with EMEM medium (Invitrogen, USA) supplemented with 10% FBS (Gibco, Australia). The cells were harvested in 90% confluence, and the viability was no less than 90%. Mice were implanted subcutaneously (s.c.) with 200 μL of 10×10^6 Hep3B cells in 50% Matrigel in the right flank at the beginning of the study.
Animal grouping and dosing schedule: Ten days after cell implantation, when tumors reached an average volume of 199 mm^3, 45 mice were selected based on tumor volume and randomly assigned to 5 treatment groups (n=9). The day of randomization was denoted as Do and the treatment was started from then on.
(§1) Tumor volume and body weight measurements: Tumor size was measured twice per week in two dimensions using a caliper, and the volume was expressed in mm^3 using the formula: V=0.5 a×b^2 where a and b were the long and short diameters of the tumor, respectively. Body weight was measured at least twice weekly.

The format of data set [2] is in vivo. Particulars: Hep3B-bearing nude mice, entire study period, current dosages and dosing schedule. How it is done: as §1
Body weight change (%) of Hep3B-bearing nude mice: FIG. 8 is a line graph depicting the body weight change (%) during the entire study period.

Data set [3] deals with MDA-MB-453 cells, which harbor an activating FGFR4 mutation. Nature of the data set: Cellular potency: phosphorylation of Erk in MDA-MB-453 cells (immunoblot). The conditions noted are these: Homo sapiens, MDA-MB-453, 1 h, read-out: Potency (pErk IC50).
Method: Dose response in MDA-MB-453 cells, which harbor an activating FGFR4 mutation, was measured as follows. Briefly, MDA-MB-453 cells were seeded at 2.5×10^6 cells/6 well, and starved overnight. Compounds were added at varying concentrations (3000, 1000, 300, 100, and 30 nM) for 1 hour. Samples were collected and lysed for immunoblot analysis. The phosphorylation of Erk was measured and the average pErk value of three replicates was plotted with three parameter dose-response (inhibition) curve fit using Prism GraphPad software, which was used to determine the IC50 values.

Chain of wild type FGFR-4 (P22455 22-802): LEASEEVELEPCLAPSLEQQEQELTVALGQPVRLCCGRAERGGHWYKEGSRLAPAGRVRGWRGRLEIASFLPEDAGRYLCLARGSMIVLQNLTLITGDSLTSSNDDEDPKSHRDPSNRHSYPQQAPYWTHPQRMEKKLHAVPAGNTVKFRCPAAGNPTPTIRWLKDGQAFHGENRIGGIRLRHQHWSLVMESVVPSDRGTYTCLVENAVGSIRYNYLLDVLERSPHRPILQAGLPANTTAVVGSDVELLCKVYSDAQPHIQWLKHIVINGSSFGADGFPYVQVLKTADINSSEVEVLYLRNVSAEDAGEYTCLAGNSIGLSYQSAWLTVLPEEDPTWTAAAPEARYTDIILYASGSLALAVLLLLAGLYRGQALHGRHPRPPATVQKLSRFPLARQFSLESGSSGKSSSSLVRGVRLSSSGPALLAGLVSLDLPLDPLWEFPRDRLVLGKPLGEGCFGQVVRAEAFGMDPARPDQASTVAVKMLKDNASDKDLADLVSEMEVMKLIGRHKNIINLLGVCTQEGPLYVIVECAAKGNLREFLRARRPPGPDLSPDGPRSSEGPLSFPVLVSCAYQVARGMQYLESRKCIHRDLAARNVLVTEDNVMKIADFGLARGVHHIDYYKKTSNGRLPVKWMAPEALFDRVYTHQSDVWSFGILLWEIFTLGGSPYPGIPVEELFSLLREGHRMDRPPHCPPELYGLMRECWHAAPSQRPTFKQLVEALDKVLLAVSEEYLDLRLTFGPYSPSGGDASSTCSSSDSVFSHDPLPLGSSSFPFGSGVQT
Chain of GST-tagged recombinant wild type FGFR-4 (P22455 460-802): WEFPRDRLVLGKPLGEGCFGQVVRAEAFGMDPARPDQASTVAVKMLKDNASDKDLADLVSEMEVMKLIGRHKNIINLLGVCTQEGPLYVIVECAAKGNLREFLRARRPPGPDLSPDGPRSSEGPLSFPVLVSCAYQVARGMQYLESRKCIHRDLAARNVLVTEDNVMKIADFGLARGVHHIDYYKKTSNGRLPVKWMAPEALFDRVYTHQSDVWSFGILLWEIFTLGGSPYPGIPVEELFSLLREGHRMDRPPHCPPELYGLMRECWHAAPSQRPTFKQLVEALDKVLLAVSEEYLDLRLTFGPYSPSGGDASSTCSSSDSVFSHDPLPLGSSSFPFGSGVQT
Chain of FGFR-4 (P22455 22-802): as the sequence (P22455 22-802) above

Take `C=CC(=O)N(CCCCN(CC)CC)c1ncc2cc(-c3cc(OC)cc(OC)c3)c(NC(=O)NC(C)(C)C)nc2n1` [COMPOUND 52, N-(7-(3-(tert-butyl)ureido)-6-(3,5-dimethoxyphenyl)pyrido[2,3-d]pyrimidin-2-yl)-N-(4-(diethylamino)butyl)acrylamide]: the pIC50 on wild type FGFR-4 (400 uM ATP, 90 minutes, 25 C, read-out: FGFR4 IC50) is over 8.00. The “Ratio FGFR1/FGFR4” value on wild type FGFR-4 ([IC50 for FGFR1]/[IC50 for FGFR4]) was “C (the ratio is ≥100 and <200)”. The “mass difference between protein-inhibitor complex and unmodified protein” value in data set [1] worked out at 575.1252 daltons. Besides, the “residue bound in crystal structure” value at FGFR-4 is on record as “binds to the cysteine at residue 552 of FGFR-4”.

`C=CC(=O)Nc1cccc(C)c1Nc1ncc2cc(-c3c(Cl)c(OC)cc(OC)c3Cl)ccc2n1` [COMPOUND 25, N-(2-((6-(2,6-dichloro-3,5-dimethoxyphenyl)quinazolin-2-yl)amino)-3-methylphenyl)acrylamide]: the “induction of apoptosis (caspase activity)” value in the data set on Hep3B cells was “potent induction of apoptosis”. Further, the “tumor volume vs vehicle group” value in the data set with Hep3B xenograft tumors (100 mg/kg PO BID) is reported as “Statistically significant reduction of tumor volumes; also recorded: regressed”; with Hep3B xenograft tumors (300 mg/kg PO BID), “Statistically significant reduction of tumor volumes; also recorded: almost disappeared”. Further, the “body weight change / tolerability” value in data set [2] is reported as “well tolerated”. For the same compound, in data set [3], the pIC50 was 8.00 to 9.00.

The record behind these values is US10196436B2, “Inhibitors of the fibroblast growth factor receptor” (BLUEPRINT MEDICINES CORPORATION, priority 2012, dated 2019).
